Source: US7507727B2, “Substituted quinobenzoxazine analogs and methods of using thereof” (Cylene Pharmaceuticals, Inc., priority 2003, dated 2009)

Legend:
[1] = test system: Chinese Hamster Ovary Cells (CHO); experiment: In vitro chromosome aberration assay (incl. mitotic index); type: cell-based; conditions: for % MI 3 HRS + S9 / % MI 20 HRS / % MI: average mitotic index; for % MI: first column (time not given)
HCT-116 cells = experiment: DNA cell cycle analysis; type: cell-based; conditions: serum-starved HCT-116 cells, 24 hr, 1 to 5 um
Procedure: The following protocol was followed in this example. Seed 1.5-2.0×10^6 cells/10 cm dish (seed one extra dish for unstained cells). Incubate cells in 37° C. humidified 5% CO2 incubator for 24 hours. For synchronizing cells in a low growth state to make cells quiescent, remove media and rinse once with serum-free media, add 10 ml of serum-free media to each dish. Incubate the cells for 24 hr in a 37° C. humidified 5% CO2 incubator. Remove media and add treatment (diluted in serum contained media, 10 ml): 1-5 μM CX-3543 plus control. Incubate the cells for 24 hr in a 37° C. humidified 5% CO2 incubator.
To trypsinize/isolate cells, remove treatment. Add 3 ml trypsin/EDTA solution. Keep floating cells and combine with attached cells. Incubate for 5 min in a 37° C. humidified 5% CO2 incubator. Add 3 ml media (containing FBS) to wells and pipette into centrifuge tube. Centrifuge at 1000 rpm for 5 minutes. Decant supernatant and re-suspend pellet in 2-3 ml PBS. Count cells and wash cells once by putting 2×10^6 cells/tube, adding 2 ml PBS and centrifuging at 1000 rpm for 5 minutes. Re-suspend pelleted cells in 0.3 ml cold PBS.
To fix cells, gently add 0.7 ml ice cold 70% ethanol drop wise to tube containing 0.3 ml of cell suspension in PBS while vortexing. Leave on Ice for one hour (or up to a few days at 4C). Centrifuge at 1000 rpm for 5 minutes. Wash one time with cold PBS (1-2 ml). […]

[2] = molecular target: c-Myc template DNA (c-myc quadruplex); experiment: Quadruplex binding / stop assay (Taq polymerase arrest, capillary electrophoresis); conditions: read-out: IC50 value in the stop assay; arrest product/full-length product ratio 1:1; FIG. 2

## CN1CCCC1CCNC(=O)c1cn2c3c(c(N4CCC(c5cnccn5)C4)c(F)cc3c1=O)Oc1cc3ccccc3cc1-2 (centres unmarked) [CX-3543]
[1]; CHO, 0.0016 mg/mL
  % CA 3 HRS: 6.0%
  FI 3 HRS: 2.0
  % CA 3 HRS + S9: 4.5%
  FI 3 HRS + S9: 1.5
  % CA 20 HRS: 4.5%
  FI 20 HRS: 1.5
[1]; CHO, 0.005 mg/mL
  % CA 3 HRS: 5.5%
  FI 3 HRS: 1.8
  % CA 3 HRS + S9: 8.4%
  FI 3 HRS + S9: 2.8
  % CA 20 HRS: 5.0%
  FI 20 HRS: 1.7
[1]; CHO, 0.016 mg/mL
  % CA 3 HRS + S9: 9.0%
  FI 3 HRS + S9: 2.0
[1]; CHO, 3 h, 3 h + S9, 20 h
  mutagenicity (chromosome aberrations): not mutagenic
[1]; 0.0016 mg/mL
  % MI 3 HRS + S9: 12%
  % MI 20 HRS: 8%
  % MI: 6%
[1]; 0.005 mg/mL
  % MI 3 HRS + S9: 9%
  % MI 20 HRS: 4%
  % MI: 8%
[1]; 0.016 mg/mL
  % MI 3 HRS + S9: 1%
  % MI 20 HRS: 0%
  % MI: 1%
[1]; 0.05 mg/mL
  % MI 3 HRS + S9: 0%
  % MI 20 HRS: 0%
  % MI: 0%
[1]; 0.16 mg/mL
  % MI 3 HRS + S9: 0%
  % MI 20 HRS: 1%
  % MI: 0%
[1]; 0.5 mg/mL
  % MI 3 HRS + S9: 0%
  % MI 20 HRS: 0%
  % MI: 0%
HCT-116 cells
  effect on the distribution of cells throughout the cell cycle: no observable effect
[2]
  IC50: 1000 nM
